Reference: US10899754B2, “Modulators of indoleamine 2,3-dioxygenase” (GLAXOSMITHKLINE INTELLECTUAL PROPERTY DEVELOPMENT LIMITED, priority 2016, dated 2021)

Assays:
Format in all cases: cell-based
[1] = biological target: T1, indoleamine 2, 3-dioxygenase (IDO1) (Homo sapiens, UniProt P14902); assay: IDO1 PBMC RapidFire MS assay (kynurenine detection by mass spectrometry); design: to induce the expression of indoleamine 2, 3-dioxygenase (IDO1); host or cells: human PBMC stimulated with IFN-gamma and LPS; settings: human PBMC stimulated with IFN-γ and LPS, 2 days, pIC50, read-out: PBMC PXC50 (converted)
T1 sequence (P14902 whole entry): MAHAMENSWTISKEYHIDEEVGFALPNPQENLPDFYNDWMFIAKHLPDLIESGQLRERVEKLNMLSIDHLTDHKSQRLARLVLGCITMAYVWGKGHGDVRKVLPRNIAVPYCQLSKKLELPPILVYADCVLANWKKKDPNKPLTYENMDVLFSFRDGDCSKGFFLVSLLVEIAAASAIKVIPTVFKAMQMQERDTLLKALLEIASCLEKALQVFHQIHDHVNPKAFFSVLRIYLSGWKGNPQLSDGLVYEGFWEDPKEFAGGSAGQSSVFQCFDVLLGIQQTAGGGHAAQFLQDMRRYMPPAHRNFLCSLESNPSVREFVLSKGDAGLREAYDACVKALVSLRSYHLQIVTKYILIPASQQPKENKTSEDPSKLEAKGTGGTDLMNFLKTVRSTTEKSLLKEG
In short: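 PBMCs (50,000 cells/well) stimulated with IFN-γ 100 ng/ml plus LPS 50 ng/ml, treated with 11-point 3-fold compound series for 2 days at 37° C. Supernatant kynurenine measured by RapidFire MS, normalised to internal standard; parallel cytotoxicity by CellTiter-Glo luminescence; curves fitted for XC50.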

[2] = system: human epithelial HeLa cells; assay: HeLa cytotoxicity assay (CellTiter-Glo); settings: pCC50
In short: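 HeLa cells (5,000/well) stimulated with 10 nM IFN-γ, exposed to 11-point 3-fold compound dilutions for 2 days at 37 °C; viability by CellTiter-Glo ATP luminescence. Normalized to cell-free (100% cytotoxicity) and stimulated-cell DMSO (0%) controls; four-parameter fit gives pCC50.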

[3] = system: human peripheral blood mononuclear cells (PBMC); assay: PBMC cytotoxicity assay (CellTiter-Glo); settings: 2 days, pCC50
In short: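 Human PBMC (50,000 cells/well) stimulated with IFN-γ 100 ng/ml and LPS 50 ng/ml were exposed to 11-point 3-fold compound dilutions for 2 days at 37 °C, 5% CO2. Viability read by CellTiter-Glo ATP luminescence and normalized to no-cell and stimulated-DMSO controls. XC50 derived by four-parameter fit.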

[4] = biological target: T1, indoleamine 2, 3-dioxygenase (IDO1); assay: IDO1 HeLa RapidFire MS assay (kynurenine detection by mass spectrometry); design: to induce the expression of indoleamine 2, 3-dioxygenase (IDO1); settings: HeLa cells, pIC50, read-out: IDO1_HELA_PXC50 (converted)
In short: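 Compound potency reported as pIC50 from kynurenine/internal-standard ratio (RapidFire MS) in supernatant of IFN-γ-induced (10 nM) HeLa cells, 5,000 per well, after 2 days' treatment with 11-point dilutions. Cytotoxicity in the same format by luminescent ATP detection, reported as pCC50.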

Structure (SMILES)	IC50 [1] [nM]	IC50 [4] [nM]	HELA_IDO1_TOX_PXC50 [2]	PBMC TOX PXC50 [3]
CC(C)CN(CC(C)C)c1ccc(C(C)CC(=O)O)cc1Nc1nnn[nH]1 (stereo not shown) [example 168, 3-{4-[bis(2-methylpropyl)amino]-3-[(1H-1,2,3,4-tetrazol-5-yl)amino]phenyl}butanoic acid]	> 10000	> 10000	<5	<5
CC(C)CN(c1ccc(-c2cccnc2C(=O)O)cc1Nc1nc(C(F)(F)F)ns1)C1CCCCC1 [Example 88, 3-(4-(cyclohexyl(isobutyl)amino)-3-((3-(trifluoromethyl)-1,2,4-thiadiazol-5-yl)amino)phenyl)picolinic Acid]	3.98	5.01	<5	<5
CC(C)CN(CC(C)C)c1ccc(-c2ccccc2C(=O)O)cc1Nc1nc2ccccc2[nH]1 [example 297, 3′-[(1H-1,3-benzodiazol-2-yl)amino]-4′-[bis(2-methylpropyl)amino]-[1,1′-biphenyl]-2-carboxylic acid]	20	50.1	<5	<5
CC(C)CN(c1ccc([C@H](C)CC(=O)O)cc1Nc1nc(C(F)(F)F)ns1)[C@H]1CC[C@@H](O)CC1 [Example 59, (R)-3-(4-(((1s,4S)-4-hydroxycyclohexyl) (isobutyl)amino)-3-((3-(trifluoromethyl)-1,2,4-thiadiazol-5-yl)amino)phenyl)butanoic Acid]	6.31	10	<5	<5
COCCc1nnc(Nc2cc([C@H](C)CC(=O)O)ccc2N(CC(C)C)CC(C)C)[nH]1 [example 203, (3R)-3-{4-[bis(2-methylpropyl)amino]-3-{[5-(2-methoxyethyl)-4H-1,2,4-triazol-3-yl]amino}phenyl}butanoic acid]	31.6	63.1	<5	<5
CC(C)CN(CC(C)C)c1ccc(C(C)CC(=O)O)cc1Nc1nc(-c2ccccc2)ns1 (stereo not shown) [example 115, 3-{4-[bis(2-methylpropyl)amino]-3-[(3-phenyl-1,2,4-thiadiazol-5-yl)amino]phenyl}butanoic acid]	2000	3160	<4.3	4.9
CC(C)CN(c1ccc(C(C)(C)CC(=O)O)cc1Nc1ccc(Cl)cn1)C1CCOCC1 [Example 4, 3-(3-((5-chloropyridin-2-yl)amino)-4-(isobutyl(tetrahydro-2H-pyran-4-yl)amino)phenyl)-3-methylbutanoic Acid]	3.98	6.31	<5	<5
CC(C)CN(c1ccc([C@H](C)Cc2nnn[nH]2)cc1Nc1nc(C(F)(F)F)ns1)C1CCCCC1 [Example 101, (R)-4-(1-(1H-tetrazol-5-yl)propan-2-yl)-N^1-cyclohexyl-N^1-isobutyl-N^2-(3-(trifluoromethyl)-1,2,4-thiadiazol-5-yl)benzene-1,2-diamine]	1.58	2.51	<5	<5
CC(C)CN(c1ccc([C@H](C)CC(=O)O)cc1Nc1nc(C2CC2)ns1)C1CCOCC1 [Example 28, (R)-3-(3-((3-cyclopropyl-1,2,4-thiadiazol-5-yl)amino)-4-(isobutyl(tetrahydro-2H-pyran-4-yl)amino)phenyl)butanoic Acid]	5.01	6.31	<5	<5
CC(C)CN(c1ccc([C@H](C)CC(=O)O)cc1Nc1nc(C(F)(F)F)ns1)C1CCN(S(C)(=O)=O)CC1 [Example 71]	5.01	20	<5	<5
CC(C)CN(c1ccc([C@H](C)CC(=O)O)cc1Nc1nc(C(F)(F)F)ns1)C1CCN(C(=O)OC(C)C)CC1 [Example 65, (R)-3-(4-(isobutyl(1-(isopropoxycarboxyl)piperidin-4-yl)amino)-3-((3-(trifluoromethyl)-1,2,4-thiadiazol-5-yl)amino)phenyl)butanoic Acid]	1.26	3.98	<5	<5
CC(C)CN(c1ccc(-c2ccccc2C(=O)O)cc1Nc1nc2ccccc2o1)C1CCOCC1 [example 291, 3′-[(1,3-benzoxazol-2-yl)amino]-4′-[(2-methylpropyl)(oxan-4-yl)amino]-[1,1′-biphenyl]-2-carboxylic acid]	126	100	<5	<5
COc1ccc2[nH]c(Nc3cc(-c4ccccc4C(=O)O)ccc3N(CC(C)C)C3CCCCC3)nc2c1 [example 287, 4′-[cyclohexyl(2-methylpropyl)amino]-3′-[(5-methoxy-1H-1,3-benzodiazol-2-yl)amino]-[1,1′-biphenyl]-2-carboxylic acid]	7.94	7.94	<5	<5

Further lines, with some results ahead:

IC50 [1] [nM]	IC50 [4] [nM]	Structure (SMILES)	HELA_IDO1_TOX_PXC50 [2]	PBMC TOX PXC50 [3]
1.26	5.01	CC(C)CN(c1cc(F)c([C@H](C)CC(=O)O)cc1Nc1ccc(Cl)nc1)C1CCOCC1 [Example 37, (R)-3-(5-((6-chloropyridin-3-yl)amino)-2-fluoro-4-(isobutyl(tetrahydro-2H-pyran-4-yl)amino)phenyl)butanoic Acid]	<5	<5
0.794	3.98	CC(C)CN(c1ccc([C@H](C)CC(=O)O)cc1Nc1ccc(Cl)nc1)C1CCCCC1 [Example 74, (R)-3-(3-((6-chloropyridin-3-yl)amino)-4-(cyclohexyl(isobutyl)amino)phenyl)butanoic Acid]	<5	6.5
2000	3980	CC(C)CN(c1ccc(C(C)CC(=O)O)cc1NC1=N[C@@H](c2ccccc2)CO1)C1CCCCC1 (stereo partly drawn) [example 153, 3-{4-[cyclohexyl(2-methylpropyl)amino]-3-{[(4S)-4-phenyl-4,5-dihydro-1,3-oxazol-2-yl]amino}phenyl}butanoic acid]	<5	<5
1	2.51	CC(C)CN(c1ccc([C@H](C)CC(=O)O)cc1Nc1cnc(C(F)(F)F)nc1)C1CCOCC1 [Example 9, (R)-3-(4-(isobutyl(tetrahydro-2H-pyran-4-yl)amino)-3-((2-(trifluoromethyl)pyrimidin-5-yl)amino)phenyl)butanoic Acid]	<5	<5
3160	3160	CC(C)CN(c1ccc(C(C)CC(=O)O)cc1NC1=N[C@@H](C)CO1)C1CCCCC1 (stereo partly drawn) [example 152, 3-{4-[cyclohexyl(2-methylpropyl)amino]-3-{[(4S)-4-methyl-4,5-dihydro-1,3-oxazol-2-yl]amino}phenyl}butanoic acid]	5.4	<5
39.8	79.4	CC(C)CN(c1ccc([C@H](C)CC(=O)O)cc1Nc1cccc(C(F)(F)F)n1)C1CCCCC1 [example 172, (3R)-3-{4-[cyclohexyl(2-methylpropyl)amino]-3-{[6-(trifluoromethyl)pyridin-2-yl]amino}phenyl}butanoic acid]	<5	<5
